Measurements: paper PMC8268022, “Loureirin B Exerts its Immunosuppressive Effects by Inhibiting STIM1/Orai1 and KV1.3 Channels” (Frontiers in Pharmacology, 2021)

Molecular target: T1, Orai1 (STIM1/Orai1 channel, CRAC channel) (Homo sapiens, UniProt Q96D31)
T1 construct: with STIM1
Assay: whole-cell patch clamp of STIM1/Orai1 currents in transfected HEK293T cells
Assay type: cell-based

T1 sequence (Q96D31 whole entry): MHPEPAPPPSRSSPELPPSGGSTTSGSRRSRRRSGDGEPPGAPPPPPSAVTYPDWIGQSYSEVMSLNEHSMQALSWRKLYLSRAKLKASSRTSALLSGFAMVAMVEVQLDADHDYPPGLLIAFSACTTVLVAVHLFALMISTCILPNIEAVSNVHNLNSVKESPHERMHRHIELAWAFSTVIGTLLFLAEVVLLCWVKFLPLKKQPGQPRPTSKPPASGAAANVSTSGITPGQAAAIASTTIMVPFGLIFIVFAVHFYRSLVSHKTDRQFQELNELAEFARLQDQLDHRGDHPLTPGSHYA
T1 sequence (Q13586 23-685 partner): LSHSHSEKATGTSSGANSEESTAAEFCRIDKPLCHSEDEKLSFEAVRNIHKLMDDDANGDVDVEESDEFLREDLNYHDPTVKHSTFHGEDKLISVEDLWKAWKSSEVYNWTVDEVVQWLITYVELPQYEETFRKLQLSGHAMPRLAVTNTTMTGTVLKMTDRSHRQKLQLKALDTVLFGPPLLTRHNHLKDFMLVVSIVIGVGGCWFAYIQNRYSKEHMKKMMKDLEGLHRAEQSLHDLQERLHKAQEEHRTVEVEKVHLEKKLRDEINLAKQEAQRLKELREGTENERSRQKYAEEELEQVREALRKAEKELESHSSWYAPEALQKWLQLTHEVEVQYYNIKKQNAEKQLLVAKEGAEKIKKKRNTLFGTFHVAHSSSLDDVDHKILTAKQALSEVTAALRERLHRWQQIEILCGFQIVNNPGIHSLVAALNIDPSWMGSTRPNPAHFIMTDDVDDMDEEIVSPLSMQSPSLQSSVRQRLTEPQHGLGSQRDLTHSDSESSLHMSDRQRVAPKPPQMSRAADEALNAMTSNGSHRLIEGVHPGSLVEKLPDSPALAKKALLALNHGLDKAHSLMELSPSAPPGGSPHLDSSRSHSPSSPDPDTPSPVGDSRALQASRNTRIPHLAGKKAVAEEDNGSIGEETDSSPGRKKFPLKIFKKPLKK

`COc1cc(OC)c(CCC(=O)c2ccc(O)cc2)c(OC)c1` [LrB, Loureirin B] gave an IC50 of 17.1 ± 2.17 µM.
